In US12552753B2, “Methods and compositions for targeting Tregs using CCR8 inhibitors” (Nanjing Immunophage Biomedical Co., Ltd., priority 2020, dated 2026):
Counter-ions that a name gives are not always drawn.

molecular target: CCR8 (Homo sapiens, UniProt P51685); experiment: Tango assay (Tango-CCR8-Gal4-CHO-K1 cells, CCL1-stimulated, ONE-Glo luminescence); settings: Tango Assay IC50, Inhibition of CCR8 Tango cell in vitro
Sequence (P51685 whole entry, the tested form may be a part): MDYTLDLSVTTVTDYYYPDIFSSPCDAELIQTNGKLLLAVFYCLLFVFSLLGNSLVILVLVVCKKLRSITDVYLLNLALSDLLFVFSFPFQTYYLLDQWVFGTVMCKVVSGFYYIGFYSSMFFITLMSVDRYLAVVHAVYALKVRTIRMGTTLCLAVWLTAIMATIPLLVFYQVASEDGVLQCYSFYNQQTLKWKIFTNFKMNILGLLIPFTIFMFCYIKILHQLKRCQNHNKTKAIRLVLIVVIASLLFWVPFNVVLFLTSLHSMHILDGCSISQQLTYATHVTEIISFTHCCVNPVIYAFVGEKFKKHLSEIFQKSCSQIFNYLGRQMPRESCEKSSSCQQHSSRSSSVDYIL

Compound | IC50 [µM]
COc1cc(S(=O)(=O)NC(C)C2CC3CCC2CC3)c(OC)cc1NC(=O)c1ccccc1C (centres unmarked) [Compound 183, N-(4-(N-(1-(bicyclo[2.2.2]octan-2-yl)ethyl)sulfamoyl)-2,5-dimethoxyphenyl)-2-methylbenzamide] | > 10
COc1cc(NC(=O)c2ccccc2C)c(C)cc1S(=O)(=O)NC(C)C1CC2CCC1CC2 (centres unmarked) [Compound 184, N-(4-(N-(1-(bicyclo[2.2.2]octan-2-yl)ethyl)sulfamoyl)-5-methoxy-2-methylphenyl)-2-methylbenzamide] | 0.016
Cc1ccccc1C(=O)Nc1ccc(S(=O)(=O)N[C@H](C)C2CCN(C(=O)OC(C)(C)C)CC2)cc1C(F)(F)F [Compound 185, (R)-tert-butyl 4-(1-(4-(2-methylbenzamido)-3-(trifluoromethyl)phenyl-sulfonamido)ethyl)piper-idine-1-carboxylate] | 0.673
Cc1ccccc1C(=O)Nc1ccc(S(=O)(=O)N[C@H](C)C2CCNCC2)cc1C(F)(F)F [Compound 186A, (R)-2-methyl-N-(4-(N-(1-(piperidin-4-yl)ethyl)sulfamoyl)-2-(trifluoromethyl)phenyl) benzamide hydrochloride] | 0.182
Cc1ccccc1C(=O)Nc1cc(C)c(S(=O)(=O)N[C@H](C)C2CCNCC2)cc1Cl [Compound 187A, (R)-N-(2-chloro-5-methyl-4-(N-(1-(piperidin-4-yl)ethyl)sulfamoyl)phen-yl)-2-methylbenzamide hydrochloride] | 0.0063
Cc1ccccc1C(=O)Nc1ccc(S(=O)(=O)N[C@H](C)C2CCN(C(=O)OC(C)(C)C)CC2)c(C(F)(F)F)c1 [Compound 188, (R)-tert-butyl 4-(1-(4-(2-methylbenzamido)-2-(trifluoromethyl)phenyl-sulfonamido)ethyl)piper-idine-1-carboxylate] | 0.302
Cc1ccccc1C(=O)Nc1ccc(S(=O)(=O)N[C@H](C)C2CCNCC2)c(C(F)(F)F)c1 [Compound 189A, (R)-2-methyl-N-(4-(N-(1-(piperidin-4-yl)ethyl)sulfamoyl)-3-(trifluoromethyl)phenyl) benzamide hydrochloride] | > 10
Cc1ccccc1C(=O)Nc1ccc(S(=O)(=O)N[C@H](C)C2CCNCC2)cc1F [Compound 190A, (R)-N-(2-fluoro-4-(N-(1-(piperidin-4-yl)ethyl)sulfamoyl)phen-yl)-2-methylbenzmaide hydrochloride] | 0.058
Cc1ccccc1C(=O)Nc1ccc(S(=O)(=O)N[C@H](C)C2CCN(C(=O)OC(C)(C)C)CC2)cc1Br [Compound 191, (R)-tert-butyl 4-(1-(3-bromo-4-(2-methylbenzamido)phen-ylsulfonamido)ethyl)pi-peridine-1-carboxylate] | > 10
Cc1ccccc1C(=O)Nc1ccc(S(=O)(=O)N[C@H](C)C2CCNCC2)cc1Br [Compound 192A, (R)-N-(2-bromo-4-(N-(1-(piperidin-4-yl)ethyl)sulfamoyl)phen-yl)-2-methylbenzamide hydrochloride] | 0.026
Cc1ccccc1C(=O)Nc1ccc(S(=O)(=O)N[C@H](C)C2CCN(C(=O)OC(C)(C)C)CC2)cc1C#N [Compound 193, (R)-tert-butyl 4-(1-(3-cyano-4-(2-methylbenzamido)phenylsulfonamido)ethyl) piperidine-1-carboxylate] | > 10
Cc1ccccc1C(=O)Nc1ccc(S(=O)(=O)N[C@H](C)C2CCNCC2)cc1C(N)=O [Compound 194, (R)-N-(2-carbamoyl-4-(N-(1-(piperidin-4-yl)ethyl)sulfamoyl)phenyl)-2-methylbenzamide] | > 10
Cc1ccccc1C(=O)Nc1ccc(S(=O)(=O)N[C@H](C)C2CCNCC2)cc1C#N [Compound 195, (R)-N-(2-cyano-4-(N-(1-(piperidin-4-yl)ethyl)sulfamoyl)phenyl)-2-methylbenzamide] | 0.023
CCc1cc(S(=O)(=O)N[C@H](C)C2CCNCC2)ccc1NC(=O)c1ccccc1C [Compound 196, (R)-N-(2-ethyl-4-(N-(1-(piperidin-4-yl)ethyl)sulfamoyl)phenyl)-2-methylbenzamide] | 0.018
Cc1ccccc1C(=O)Nc1ccc(S(=O)(=O)N[C@H](C)C2CCNCC2)cc1C(C)C [Compound 197A, (R)-N-(2-isopropyl-4-(N-(1-(piperidin-4-yl)ethyl)sulfamoyl)phenyl)-2-methylbenzamide hydrochloride] | 0.115
Cc1ccccc1C(=O)Nc1ccc(S(=O)(=O)N[C@H](C)C2CCNCC2)cc1C1CC1 [Compound 198, (R)-N-(2-cyclopropyl-4-(N-(1-(piperidin-4-yl)ethyl)sulfamoyl)phenyl)-2-methylbenzamide] | 0.026
Cc1ccccc1C(=O)Nc1ncc(S(=O)(=O)N[C@H](C)C2CCNCC2)cc1C [Compound 199A, (R)-2-methyl-N-(3-methyl-5-(N-(1-(piperidin-4-yl)ethyl)sulfamoyl)pyridin-2-yl)benzamide hydrochloride] | 0.438
Cc1cc(S(=O)(=O)N[C@H](C)C2CCN(C(C)C)CC2)ccc1NC(=O)c1ccccc1C [Compound 200, (R)-N-(4-(N-(1-(1-isopropylpiperidin-4-yl)ethyl)sulfamoyl)-2-methylphenyl)-2-methylbenzamide] | 0.015
COCCN1CCC([C@@H](C)NS(=O)(=O)c2ccc(NC(=O)c3ccccc3C)c(C)c2)CC1 [Compound 202, (R)-N-(4-(N-(1-(1-(2-methoxyethyl)piperidin-4-yl)ethyl)sulfamoyl)-2-methylphenyl)-2-methylbenzamide] | 0.06
Cc1cc(S(=O)(=O)N[C@H](C)C2CCN(CCO)CC2)ccc1NC(=O)c1ccccc1C [Compound 205, (R)-N-(4-(N-(1-(1-(2-hydroxyethyl)piperidin-4-yl)ethyl)sulfamoyl)-2-methylphenyl)-2-methylbenzamide] | 0.041
Cc1cc(S(=O)(=O)N[C@H](C)C2CCN(CC(F)(F)F)CC2)ccc1NC(=O)c1ccccc1C [Compound 206, (R)-2-methyl-N-(2-methyl-4-(N-(1-(1-(2,2,2-trifluoroethyl)piperidin-4-yl)ethyl)sulfamoyl)phenyl)benzamide] | 0.061
Cc1cc(S(=O)(=O)N[C@H](C)C2CCNCC2)ccc1NC(=O)Cc1ccccc1 [Compound 207A, (R)-N-(2-methyl-4-(N-(1-(piperidin-4-yl)ethyl)sulfamoyl)phenyl)-2-phenylacetamide hydrochloride] | 0.04
Cc1cc(S(=O)(=O)N[C@H](C)C2CCNCC2)ccc1NC(=O)C1CCCCC1 [Compound 208A, (R)-N-(2-methyl-4-(N-(1-(piperidin-4-yl)ethyl)sulfamoyl)phenyl) cyclohexanecarboxamide hydrochloride] | 0.055
Cc1cc(S(=O)(=O)N[C@H](C)C2CCNCC2)ccc1NC(=O)C(C)(C)C [Compound 209A, (R)-N-(2-methyl-4-(N-(1-(piperidin-4-yl)ethyl)sulfamoyl)phenyl)pivalamide hydrochloride] | 1.1
Cc1cc(S(=O)(=O)N[C@H](C)C2CCNCC2)ccc1NC(=O)c1cccs1 [Compound 210A, (R)-N-(2-methyl-4-(N-(1-(piperidin-4-yl)ethyl)sulfamoyl)phenyl)thiophene-2-carboxamide hydrochloride] | 0.161
Cc1cc(S(=O)(=O)N[C@H](C)C2CCNCC2)ccc1NC(=O)c1ccsc1 [Compound 211A, (R)-N-(2-methyl-4-(N-(1-(piperidin-4-yl)ethyl)sulfamoyl)phenyl)thiophene-3-carboxamide hydrochloride] | 0.096
